Patent publication US10597388B2, “Pyridazinone herbicides” (FMC CORPORATION, priority 2014, dated 2020)

How the values were obtained:
Assay in all cases: Test E greenhouse herbicide test, pre- and postemergence
Assay type in all cases: in vivo
Details in all cases: Preemergence
[1] = test system: pigweed, palmer (palmer pigweed, Amaranthus palmeri)
Summary of the method: (§1)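 Compounds in a non-phytotoxic solvent mixture with surfactant were applied preemergence to seeds in silt loam soil and postemergence to 2-18 cm plants (1- to 4-leaf stage) in peat-based medium. After 14 to 21 d in a greenhouse, injury was rated visually against untreated controls on a 0 (no effect) to 100 (complete control) scale.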

corn (Zea mays) = test system: corn (Zea mays)
Summary of the method: as §1

[2] = test system: foxtail, green (green foxtail, Setaria viridis)
Summary of the method: as §1

[3] = test system: barnyardgrass (Echinochloa crus-galli)
Summary of the method: as §1

[4] = test system: nutsedge, yellow (yellow nutsedge, Cyperus esculentus)
Summary of the method: as §1

[5] = test system: velvetleaf (Abutilon theophrasti)
Summary of the method: as §1

[6] = test system: crabgrass, large (large crabgrass, Digitaria sanguinalis)
Summary of the method: as §1

[7] = test system: Italian ryegrass (Lolium multiflorum)
Summary of the method: as §1

[8] = test system: sandbur (southem sandbur, Cenchrus echinatus)
Summary of the method: as §1

[9] = test system: ragweed (common ragweed, Ambrosia elatior)
Summary of the method: as §1

[10] = test system: johnsongrass (Sorghum halepense)
Summary of the method: as §1

kochia (Kochia scoparia) = test system: kochia (Kochia scoparia)
Summary of the method: as §1

[11] = test system: goosegrass (Eleusine indica)
Summary of the method: as §1

[12] = test system: surinam grass (Brachiaria decumbens)
Summary of the method: as §1

[13] = test system: crabgrass, Brazilian (Brazilian crabgrass, Digitaria horizontalis)
Summary of the method: as §1

[14] = test system: waterhemp (common waterhemp, Amaranthus rudis)
Summary of the method: as §1

[15] = test system: nightshade (eastern black nightshade, Solanum ptycanthum)
Summary of the method: as §1

[16] = 62 g ai/ha, scale 0 to 100 (0 no effect, 100 complete control)
[17] = 125 g ai/ha, scale 0 to 100 (0 no effect, 100 complete control)
[18] = 31 g ai/ha, scale 0 to 100, 0 no effect, 100 complete control
[19] = 250 g ai/ha, visual, scale 0 no effect to 100 complete control

SMILES: C#CCOC(=O)Oc1c(C)nn(C)c(=O)c1-c1c(C)sc2ccc(C)cc12 [Compound 87]
- Plant response rating, Pigweed, Palmer [1, 16]: 65
- Plant response rating, Pigweed, Palmer [1, 17]: 75
- Plant response rating, Pigweed, Palmer [1, 18]: 0
- Plant response rating, Pigweed, Palmer [1, 19]: 90
- Plant response rating, Corn (corn (Zea mays); [16]): 0
- Plant response rating, Corn (corn (Zea mays); [17]): 20
- Plant response rating, Corn (corn (Zea mays); [18]): 0
- Plant response rating, Corn (corn (Zea mays); [19]): 15
- Plant response rating, Foxtail, Green [2, 16]: 20
- Plant response rating, Foxtail, Green [2, 17]: 60
- Plant response rating, Foxtail, Green [2, 18]: 20
- Plant response rating, Foxtail, Green [2, 19]: 80
- Plant response rating, Barnyardgrass [3, 16]: 0
- Plant response rating, Barnyardgrass [3, 17]: 10
- Plant response rating, Barnyardgrass [3, 18]: 0
- Plant response rating, Barnyardgrass [3, 19]: 35
- Plant response rating, Nutsedge, Yellow [4, 16]: 60
- Plant response rating, Nutsedge, Yellow [4, 17]: 65
- Plant response rating, Nutsedge, Yellow [4, 18]: 0
- Plant response rating, Nutsedge, Yellow [4, 19]: 60
- Plant response rating, Velvetleaf [5, 16]: 60
- Plant response rating, Velvetleaf [5, 17]: 90
- Plant response rating, Velvetleaf [5, 18]: 0
- Plant response rating, Velvetleaf [5, 19]: 95
- Plant response rating, Crabgrass, Large [6, 16]: 0
- Plant response rating, Crabgrass, Large [6, 17]: 65
- Plant response rating, Crabgrass, Large [6, 18]: 0
- Plant response rating, Crabgrass, Large [6, 19]: 65
- Plant response rating, Ryegrass, Italian [7, 16]: 95
- Plant response rating, Ryegrass, Italian [7, 17]: 98
- Plant response rating, Ryegrass, Italian [7, 18]: 75
- Plant response rating, Ryegrass, Italian [7, 19]: 100
- Plant response rating, Sandbur [8, 16]: 65
- Plant response rating, Sandbur [8, 17]: 75
- Plant response rating, Sandbur [8, 18]: 25
- Plant response rating, Sandbur [8, 19]: 85
- Plant response rating, Ragweed [9, 16]: 95
- Plant response rating, Ragweed [9, 17]: 98
- Plant response rating, Ragweed [9, 18]: 98
- Plant response rating, Ragweed [9, 19]: 100
- Plant response rating, Johnsongrass [10, 16]: 65
- Plant response rating, Johnsongrass [10, 17]: 70
- Plant response rating, Johnsongrass [10, 19]: 75
- Plant response rating, Kochia (kochia (Kochia scoparia); [16]): 100
- Plant response rating, Kochia (kochia (Kochia scoparia); [17]): 100
- Plant response rating, Kochia (kochia (Kochia scoparia); [18]): 65
- Plant response rating, Kochia (kochia (Kochia scoparia); [19]): 100
- Plant response rating, Goosegrass [11, 16]: 0
- Plant response rating, Goosegrass [11, 17]: 60
- Plant response rating, Goosegrass [11, 18]: 0
- Plant response rating, Goosegrass [11, 19]: 75
- Plant response rating, Surinam Grass [12, 16]: 15
- Plant response rating, Surinam Grass [12, 17]: 80
- Plant response rating, Surinam Grass [12, 18]: 10
- Plant response rating, Surinam Grass [12, 19]: 75
- Plant response rating, Crabgrass, Brazil [13, 16]: 80
- Plant response rating, Crabgrass, Brazil [13, 17]: 90
- Plant response rating, Crabgrass, Brazil [13, 18]: 60
- Plant response rating, Crabgrass, Brazil [13, 19]: 100
- Plant response rating, Waterhemp [14, 16]: 90
- Plant response rating, Waterhemp [14, 17]: 90
- Plant response rating, Waterhemp [14, 18]: 75
- Plant response rating, Waterhemp [14, 19]: 100
- Plant response rating, Nightshade [15, 16]: 90
- Plant response rating, Nightshade [15, 17]: 98
- Plant response rating, Nightshade [15, 18]: 50
- Plant response rating, Nightshade [15, 19]: 98
